This note sets out measurements from patent EP4775586A1, “DEUTERATED TETRACYCLIC DERIVATIVE AND USE THEREOF” (priority 2023, dated 2025).

In general, MIC90 refers to an inhibitory concentration at the 90% level, which refers to growth in some studies and to a panel of isolates in others. A word on the Cmax: it is the highest concentration seen after dosing. Usually Tmax stands for the time at which the peak concentration occurs. The term AUC(0-inf) denotes the area under the concentration-time curve extrapolated to infinity. A lower AUC(0-inf) goes with low exposure. In general, AUC(0-t) refers to exposure summed from dosing to a finite time, without extrapolation to infinity. The low end stands for low exposure, the high end for high exposure. By half-life is commonly meant how long it takes for the measured level to halve. A high value points to slow loss.

The subject of data set [1] is Mycobacterium tuberculosis H37Rv. The data set is described as follows: Minimum inhibitory concentration (MIC90) against Mycobacterium tuberculosis H37Rv, Middlebrook 7H9, 96-well plate, 15 days. It counts as cell-based.
Data set [2] is described as follows: Pharmacokinetics and lung tissue distribution in mice, LC-MS/MS. The settings on record: 100 mg/kg. The class given is in vivo, Balb/C mice. Here is the method:
In this example, the pharmacokinetic parameters and lung tissue distribution of the deuterated compounds YF027, YF032, YF036, and YF044 and their respective non-deuterated control compounds (A, B, C, and D) were determined.
Balb/C mice, male (1 group at each time point, 5 mice per group, 55 mice per compound in total), 7-8 weeks old, weighing about 20 g, animal source: Beijing Vital River Laboratory Animal Technology Co., Ltd.
The test compound was completely dissolved in an 8% Tween-80 aqueous solution. A 10 mg/mL drug liquid was prepared for intraperitoneal injection and intragastric administration.
Single intragastric administration was performed at a dose of 100 mg/kg. The pharmacokinetic differences between the deuterated compounds YF027, YF032, YF036, and YF044 and their respective non-deuterated controls A, B, C, and D were compared.
The mice were fasted overnight before administration. In the experiment, orbital venous blood and lung tissue were collected from the mice at time points of no administration group (0 min) and 10 min, 20 min, 30 min, 1 h, 2 h, 3 h, 4 h, 6 h, 8 h, and 24 h after intragastric administration, and about 300 µL of blood was collected from the eyeballs each time.
The collected blood sample was placed in an anticoagulation tube, and quickly inverted and mixed well. The tube was temporarily placed on ice after being labeled. The blood samples temporarily stored on ice were subjected to low-temperature centrifugation within 1 h at 4 °C at 3000 rpm for 10 min. The supernatant obtained after centrifugation was plasma. The plasma was transferred to a new centrifuge tube and stored in a refrigerator at -80 °C for subsequent detection.
The lung tissues of the mice were collected, washed with pre-cooled normal saline to remove the residual blood and tissue fluid, dried with absorbent paper, weighed with a balance, and placed into a centrifuge tube. The tubes were marked and stored in a refrigerator at -80 °C.
The concentrations of the compounds of the present disclosure and control compounds in plasma and lung tissue were determined using LC-MS/MS. Table 2. Pharmacokinetic parameters of compound YF027 of the present disclosure and control compound A

Data set [3] has as its system Mycobacterium tuberculosis H37Rv. The class given is in vivo, BALB/c mice.
Data set [4] deals with liver microsomes. As to the kind of experiment: Liver microsome incubation of positive control group (positive substrates). It counts as in vitro ADME, mouse. Here is the method: This example was to detect the CYP450 metabolic enzyme phenotype of the deuterated compound YF027 and its non-deuterated control compound A (using a CYP450 enzyme metabolic phenotype research kit (recombinant enzymatic method/7 enzymes)-mouse liver microsome test).
• a. The test compound was prepared into a 40 mM stock solution for later use. 2.5 µL of the stock solution was taken and diluted with DMSO to a test compound concentration of 200 µM, and the compound at this concentration was used in subsequent tests. • b. The working solution concentration of the mixed positive substrates, phenacetin and testosterone, was 200 µM.
1) The components of the kit were thawed in an ice bath. The mixture was well mixed by vortexing and then placed on ice for later use. 2) In addition to the microsomes, the other components of the incubation systems were mixed according to the ratios and well mixed by pipetting, and the ratios of the incubation systems are shown below; Table 6. Incubation system of positive control group
3) Except for the negative control group (Table 9), 3.125 µL of liver microsomes was added to each of the above incubation systems to prepare 125 µL of reaction solution. The reaction solutions were well mixed by vortexing, and then placed in a water bath at 37 °C to initiate the reaction. A timer was set. […]
Background: Liver microsomes are vesicles of endoplasmic reticulum, rich in cytochrome P450 enzymes.

The mark [5] stands for this setting: Mycobacterium tuberculosis H37Rv, 15 days of incubation, 90% inhibition of growth, visual reading.
[6] abbreviates: Balb/C mice, single intragastric administration, plasma.
Where [7] appears, read: Balb/C mice, single intragastric administration, plasma, 1440 min.
Setting [8] is: 360 h, Mycobacterium tuberculosis H37Rv, 15 days of incubation, 90% inhibition of growth, visual reading, read-out: MIC90.
Setting [9] is: Mycobacterium tuberculosis, H37RV, 360 h, Mycobacterium tuberculosis H37Rv, 15 days of incubation, 90% inhibition of growth, visual reading.

≈ marks a conversion by molar mass, not a printed value. Where “and” joins values, the source holds several entries; their conditions need not be identical. Identical values can stand only once. Counter-ions that a name gives are not always drawn. Like-named read-outs stand apart in the source and are kept apart here.

Regarding “8-((4-Butanoylpiperidin-1-yl-2,2,6,6-d4)-methyl-d2)-3,9-dihydroxybenzo[5,6]oxepino[4,3-b]benzofuran-7(5H)-one hydrochloride [YF036]”, the MIC90 in data set [1] (setting [5]) came out at 0.03125 µg/mL. For the same compound, in data set [2] (setting [6]), the “AUC0-∞” value is listed as 5883.88 ng·h/mL, the CL is 283.3 mL/min/kg, the highest concentration (Cmax) was 2084.39 ng/mL and the time to peak (Tmax) is recorded as 0.33 h. Also, the t1/2 in data set [2] (setting [6]) was 4.75 h. Further, the AUC0-t in data set [2] (setting [7]) amounted to 5655.66 ng·h/mL. Besides, in data set [3] (mouse, in vivo), the “reduction of pulmonary bacterial load” value was 1.87 log.

For the compound `CCCC(O)C1CCN(Cc2c(O)ccc3oc4c(c23)C(=O)OCc2cc(O)ccc2-4)CC1` (stereo not shown) [Compound D], in data set [1] (setting [8]), the MIC90 amounted to 0.0156 µg/mL (≈ 0.0346 µM). In addition, in data set [2] (mouse, in vivo, po), the total exposure AUC(0-inf) came out at 4500 ng·h/mL; the AUC(0-t) at 24 h was found to be 4470 ng·h/mL; the CL came to 371.3 mL/min/kg; the peak concentration (Cmax) is 2110 ng/mL and 13500 ng/g. In addition, the half-life in data set [2] (mouse, in vivo, po) is 2.86 h.

Turning to `CCCC(=O)C1CCN(Cc2c(O)ccc3oc4c(c23)C(=O)OCc2cc(O)ccc2-4)CC1` [Compound C], in data set [1] (setting [8]), the MIC90 amounted to 0.0625 µg/mL (≈ 0.139 µM). In data set [2] (mouse, in vivo, po), the AUC(0-inf) amounted to 5430 ng·h/mL; the exposure AUC(0-t) at 24 h was 4960 ng·h/mL; the CL came to 307.2 mL/min/kg; the maximum concentration (Cmax) is 944 ng/mL and 5420 ng/g. In data set [2] (mouse, in vivo, po), the time of peak concentration (Tmax) was 0.5 h and the half-life is 7.12 h. Further, in data set [3] (mouse, in vivo), the “reduction of pulmonary bacterial load” value stood at 1.99 log.

Consider `C[C@]12CC[C@H]3[C@@H](CCC4=CC(=O)CC[C@@]43C)[C@@H]1CC[C@@H]2O` [testosterone], for which, in data set [4] (liver microsomes, after 90 min of incubation, 37 °C), the “metabolism of positive substrate” value is “almost completely metabolized”.

Consider `CCOc1ccc(NC(C)=O)cc1` [phenacetin], for which the “metabolism of positive substrate” value in data set [4] is “almost completely metabolized”.

In turn, “3,9-Dihydroxy-8-((4-(1-hydroxybutyl-1-d)piperidin-2,2,6,6-d4-1-yl)methyl)benzo[5,6]oxepino[4,3-b]benzofuran-7(5H)-one hydrochloride [YF044]” registered an MIC90 in data set [1] (setting [5]) of 0.0078 µg/mL. In data set [2] (mouse, in vivo, po), the “AUC0-∞” value is on record as 111067.0 ng·h/mL, the CL amounted to 150 mL/min/kg, the Cmax is 4041.90 ng/mL and the “Lung tissue distribution Cmax” value was determined as 43437.42 ng/g. Besides, in data set [2] (mouse, in vivo, po), the Tmax came to 0.50 h and the t1/2 stood at 2.03 h. For the same compound, the AUC0-t in data set [2] (mouse, in vivo, po, 24 h) came out at 11104.68 ng·h/mL.

For the compound `[2H]c1c(O)c(C([2H])([2H])N2C([2H])([2H])CC(C([2H])(O)CCC)CC2([2H])[2H])c2c3c(oc2c1[2H])-c1ccc(O)cc1C([2H])([2H])OC3=O` (stereo not shown) [YF022, 3,9-Dihydroxy-8-((4-(1-hydroxybutyl-1-d)piperidin-2,2,6,6-d4-1-yl)methyl-d2)benzo[5,6]oxepino[4,3-b]benzofuran-7(5H)-one-5,5,10,11-d4], the MIC90 in data set [1] (H37RV, 360 h) is listed as 0.0156 µg/mL (≈ 0.0337 µM).

As for `[2H]c1c(O)c(C([2H])([2H])N2C([2H])([2H])CC(C([2H])(O)CCC)CC2([2H])[2H])c2c3c(oc2c1[2H])-c1ccc(O)cc1C([2H])([2H])OC3=O` (stereo not shown) [YF046, 3,9-Dihydroxy-8-((4-(1-hydroxybutyl-1-d)piperidin-2,2,6,6-d4-1-yl)methyl-d2)benzo[5,6]oxepino[4,3-b]benzofuran-7(5H)-one-5,5,10,11-d4 hydrochloride], the MIC90 in data set [1] (setting [9]) is 0.0156 µg/mL.

In the case of `O=C1OCc2cc(O)ccc2-c2oc3ccc(O)c(CN4CCC(c5cccc(Cl)c5)CC4)c3c21` [Compound B], the MIC90 in data set [1] (setting [8]) is 0.125 µg/mL (≈ 0.255 µM). Also, in data set [2] (mouse, in vivo, po), the AUC(0-inf) worked out at 10400 ng·h/mL; the exposure AUC(0-t) at 24 h came to 10300 ng·h/mL; the CL stood at 161 mL/min/kg; the peak concentration (Cmax) is 3570 ng/mL and 23400 ng/g. Further, in data set [2] (mouse, in vivo, po), the Tmax worked out at 1 h and the half-life is 1.74 h. The “bacteriostatic activity in mice” value in data set [3] (4 weeks intragastrically, Table 11 prints 50 mg/kg, text implies twice the dose of YF032) is reported as “no bacteriostatic activity”.

For “8-((4-(3-Chlorophenyl)piperidin-1-yl-2,2,6,6-d4)methyl-d2)-3,9-dihydroxybenzo[5,6]oxepino[4,3-b]benzofuran-7(5H)-one hydrochloride [YF032]”, the MIC90 in data set [1] (setting [5]) stood at 0.0625 µg/mL. Besides, in data set [2] (setting [6]), the “AUC0-∞” value came to 14032.28 ng·h/mL, the CL is 119 mL/min/kg, the Cmax is reported as 4332.29 ng/mL and the Tmax was found to be 1.00 h. This compound had a t1/2 in data set [2] (setting [6]) of 1.85 h. In data set [2] (setting [7]), this compound showed an AUC0-t of 14030.17 ng·h/mL. The “reduction in bacterial load” value in data set [3] (mouse, in vivo) is reported as 0.81 log.

In turn, `[2H]C1([2H])CC(C(O)CCC)CC([2H])([2H])N1C([2H])([2H])c1c(O)ccc2oc3c(c12)C(=O)OCc1cc(O)ccc1-3` (stereo not shown) [YF043, 3,9-Dihydroxy-8-((4-(1-hydroxybutyl)piperidin-2,2,6,6-d4-1-yl)methyl)benzo[5,6]oxepino[4,3-b]benzofuran-7(5H)-one hydrochloride] displayed an MIC90 in data set [1] (setting [9]) of 0.0156 µg/mL.

In data set [1] (setting [5]), “8-((4-(Butanoyl-2,2-d2)piperidin-1-yl-4-d)methyl-d2)-3,9-dihydroxybenzo[5,6]oxepino[4,3-b]benzofuran-7(5H)-one-5,5,10,11-d4 hydrochloride [YF038]” gave an MIC90 of 0.0625 µg/mL.
